Data taken from the supplement of paper PMC12370961.

Columns and labels:
Experiment in all cases: differential drug sensitivity score (dDSS) relative to sarcoma reference cohort mean DSS (DSS units (0-100 scale difference)); higher = more selective sensitivity than reference sarcomas
Settings in all cases: exposure time: 72 h; concentration range: 10-10000 nM
ES-ZH016 = system: ES-ZH016 (patient-derived Ewing sarcoma tumoroid)
Description: (§1)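 Drug response profiling of patient-derived Ewing sarcoma and CIC::DUX4 sarcoma tumoroid models (or cells tested directly after isolation from the tumor, 'direct'). The DSS is the normalised AUC (0-100); dDSS is the sample DSS minus the mean DSS of a 34-sarcoma reference cohort profiled in the same lab.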

ES-ZH016 direct = system: ES-ZH016 direct (Ewing sarcoma cells right after isolation)
Description: as §1

ES-ZH001 = system: ES-ZH001 (patient-derived Ewing sarcoma tumoroid)
Description: as §1

ES-ZH007 = system: ES-ZH007 (patient-derived Ewing sarcoma tumoroid)
Description: as §1

ES-ZH008 = system: ES-ZH008 (patient-derived Ewing sarcoma tumoroid)
Description: as §1

CDS-ZH002 = system: CDS-ZH002 (patient-derived CIC-DUX4 sarcoma tumoroid)
Description: as §1

CDS-ZH001 = system: CDS-ZH001 (patient-derived CIC-DUX4 sarcoma tumoroid)
Description: as §1

ES-ZH009 = system: ES-ZH009 (patient-derived Ewing sarcoma tumoroid)
Description: as §1

ES-ZH004 = system: ES-ZH004 (patient-derived Ewing sarcoma tumoroid)
Description: as §1

ES-ZH002 = system: ES-ZH002 (patient-derived Ewing sarcoma tumoroid)
Description: as §1

CDS-ZH003 = system: CDS-ZH003 (patient-derived CIC-DUX4 sarcoma tumoroid)
Description: as §1

CDS-ZH001-2 = system: CDS-ZH001-2 (patient-derived CIC-DUX4 sarcoma tumoroid)
Description: as §1

CDS-ZH002 direct = system: CDS-ZH002 direct (CIC-DUX4 sarcoma cells right after isolation)
Description: as §1

SMILES | differential drug sensitivity score (ES-ZH016) | differential drug sensitivity score (ES-ZH016 direct) | differential drug sensitivity score (ES-ZH001) | differential drug sensitivity score (ES-ZH007) | differential drug sensitivity score (ES-ZH008) | differential drug sensitivity score (CDS-ZH002) | differential drug sensitivity score (CDS-ZH001) | differential drug sensitivity score (ES-ZH009) | differential drug sensitivity score (ES-ZH004) | differential drug sensitivity score (ES-ZH002) | differential drug sensitivity score (CDS-ZH003) | differential drug sensitivity score (CDS-ZH001-2) | differential drug sensitivity score (CDS-ZH002 direct)
C[C@@H]1COCCN1c1cc(C2([S@](C)(=N)=O)CC2)nc(-c2cc[nH]c3nccc2-3)n1 [Ceralasertib] | 4.5 | 13.8 | 5.9 | 3 | 9.7 | -0.4 | 0 | 2.1 | 5.7 | 12 | -4.4 | 0.7 | -2.5
Cc1cc(Nc2ncc(Cl)c(Nc3ccccc3S(=O)(=O)C(C)C)n2)c(OC(C)C)cc1C1CCNCC1 [Ceritinib] | 3.4 | 3.7 | 2.9 | 3.8 | 4.9 | 0.4 | 4.9 | 2.1 | 3.5 | 11.7 | 0.3 | 7 | -0.1
Nc1nc(Cl)nc2c1ncn2[C@@H]1O[C@H](CO)[C@@H](O)[C@@H]1F [Clofarabine] | 15.7 | 8.4 | 17.7 | 19 | 3.6 | -4.3 | -12 | 3.9 | 4.8 | 20.2 | -4.8 | -1.8 | -4.3
O=C(c1ccc(F)c(F)c1Nc1ccc(I)cc1F)N1CC(O)([C@@H]2CCCCN2)C1 [Cobimetinib] | -3.8 | -3.5 | 1.4 | -3 | -6.2 | -6.7 | -5.4 | -4.5 | 0 | 2.5 | -6.7 | -5.7 | -3.5
C[C@H](NC(=O)CCC(F)(F)F)C(=O)N[C@@H]1C(=O)N(CCO)c2ncccc2-c2ccccc21 [Crenigacestat] | -2.3 | 1 | 5.8 | -2.3 | 6.4 | -0.2 | -2.3 | -2.3 | 5.8 | 13.6 | -2.3 | 0.3 | -0.6
CC1(COc2ccc3c(c2)ncn3-c2ccc3cccc(N4CCC(N)CC4)c3n2)COC1 [Crenolanib] | -1.3 | 1.2 | 4 | 4 | -0.6 | -2.3 | 2.5 | 2.8 | 2.9 | 3.4 | -4.2 | 1.4 | -1.7
C[C@@H](Oc1cc(-c2cnn(C3CCNCC3)c2)cnc1N)c1c(Cl)ccc(F)c1Cl [Crizotinib] | 0 | 4 | 3.1 | 5.1 | 1.2 | -0.9 | 2.3 | 0.5 | -1.9 | 7.3 | 1.6 | 4.4 | -3.4
O=P1(N(CCCl)CCCl)NCCCO1 (stereo not given) [Cyclophosphamide] | -0.3 | -0.3 | -0.3 | -0.3 | -0.3 | -0.3 | 1.7 | -0.3 | -0.3 | 3.8 | -0.3 | -0.3 | -0.3
Nc1ccn([C@@H]2O[C@H](CO)[C@@H](O)[C@@H]2O)c(=O)n1 [Cytarabine] | 12.5 | 11.6 | 8.3 | 17 | 22.9 | 1.3 | -12.4 | -6.1 | 4.4 | 21.1 | 0.8 | 3.3 | -8.5
CC(C)(C)c1nc(-c2cccc(NS(=O)(=O)c3c(F)cccc3F)c2F)c(-c2ccnc(N)n2)s1 [Dabrafenib] | -1.2 | 2.3 | 11.1 | -1.1 | 0.8 | -1.2 | -1.2 | 3.9 | -0.7 | 7.7 | -1.2 | -1.2 | -1.2
CN(C)/N=N/c1[nH]cnc1C(N)=O [Dacarbazine] | -0.8 | -0.8 | -0.7 | -0.8 | 2.8 | -0.8 | -0.8 | 0.9 | 0.1 | 7.5 | -0.7 | -0.7 | -0.8
Cc1c2oc3c(C)ccc(C(=O)N[C@@H]4C(=O)N[C@H](C(C)C)C(=O)N5CCC[C@H]5C(=O)N(C)CC(=O)N(C)[C@@H](C(C)C)C(=O)O[C@@H]4C)c3nc-2c(C(=O)N[C@@H]2C(=O)N[C@H](C(C)C)C(=O)N3CCC[C@H]3C(=O)N(C)CC(=O)N(C)[C@@H](C(C)C)C(=O)O[C@@H]2C)c(N)c1=O [Dactinomycin] | 11.8 | 9.9 | 9.7 | 8.7 | 12.5 | 11.4 | 12.1 | 12.8 | 7.5 | 11.1 | 12.7 | 11.9 | 11.9
Cn1c(=O)n(-c2ccc(C(C)(C)C#N)cc2)c2c3cc(-c4cnc5ccccc5c4)ccc3ncc21 [Dactolisib] | -2.5 | -7.5 | 3 | 1.5 | -0.5 | -0.4 | 3.3 | 13.6 | 1 | 5 | 3.4 | 1.3 | 1.1
Cc1nc(Nc2ncc(C(=O)Nc3c(C)cccc3Cl)s2)cc(N2CCN(CCO)CC2)n1 [Dasatinib] | -10.8 | 9.3 | -4.5 | -6.8 | -7.5 | -3.2 | -11.9 | -7 | -3.6 | 2.2 | -9.6 | -4.6 | 8.9
COc1cccc2c1C(=O)c1c(O)c3c(c(O)c1C2=O)C[C@@](O)(C(C)=O)C[C@@H]3O[C@H]1C[C@H](N)[C@H](O)[C@H](C)O1 [Daunorubicin] | 12.2 | 12.9 | 9.1 | -5.2 | 3.2 | 2.8 | 4.9 | 12.6 | -4.5 | 21.7 | 0.8 | 13.2 | 2.7
Nc1ncn([C@H]2C[C@H](O)[C@@H](CO)O2)c(=O)n1 [Decitabine] | 4.4 | 13.3 | 5.8 | 5.1 | 5.7 | -1.8 | 0.1 | 1.3 | 6.4 | 21.4 | -7 | 1.7 | 2.2
CCC[C@H](NC(=O)/C(C#N)=C/c1cccc(Br)n1)c1ccccc1 [Degrasyn] | -0.8 | -0.2 | -1.4 | -1.4 | 0.7 | -1.1 | -1.4 | -1.4 | -1.1 | 4.8 | 0.7 | -1.4 | -1.4
CC(C)C[C@H](NC(=O)[C@@H](NC(=O)c1cccc(-c2ccccc2)n1)[C@@H](C)O)B(O)O [Delanzomib] | 0 | 2.4 | 7.9 | 5.7 | 5.7 | 1.2 | 5.4 | 5.8 | 2.1 | 9.6 | 1.1 | 4.9 | 6.7
C[C@@H]1C[C@H]2[C@@H]3CCC4=CC(=O)C=C[C@]4(C)[C@@]3(F)[C@@H](O)C[C@]2(C)[C@@]1(O)C(=O)CO [Dexamethasone] | -0.5 | -0.5 | -0.5 | -0.5 | -0.5 | -0.5 | -0.5 | -0.5 | -0.5 | -0.5 | -0.5 | -0.5 | 0.6
CCc1cnn2c(NCc3ccc[n+]([O-])c3)cc(N3CCCC[C@H]3CCO)nc12 [Dinaciclib] | 12.2 | 11.6 | 9.8 | 9.6 | 6.6 | 12 | 14 | 13.8 | 9.8 | 11.7 | 14 | 11.5 | 12.8
CC(=O)O[C@@]12CO[C@@H]1C[C@H](O)[C@@]1(C)C(=O)[C@H](O)C3=C(C)[C@@H](OC(=O)[C@H](O)[C@@H](NC(=O)OC(C)(C)C)c4ccccc4)C[C@@](O)([C@@H](OC(=O)c4ccccc4)[C@H]21)C3(C)C [Docetaxel] | 20 | 17.1 | 24.4 | 5.3 | 11.4 | -3.2 | -0.1 | 26.8 | 5.9 | 23.8 | -20.9 | 6.8 | 2
CN1CCN(c2ccc3nc(-c4c(N)c5c(F)cccc5[nH]c4=O)[nH]c3c2)CC1 [Dovitinib] | -3.2 | 7.6 | 0.4 | -3.8 | 1.7 | -4 | -2.9 | 1.5 | -1.9 | 6.3 | -4 | 1.1 | -1.6
COc1cccc2c1C(=O)c1c(O)c3c(c(O)c1C2=O)C[C@@](O)(C(=O)CO)C[C@@H]3O[C@H]1C[C@H](N)[C@H](O)[C@H](C)O1 [Doxorubicin] | 12.8 | 11 | 6.8 | -10.2 | -0.7 | 4.7 | 3.1 | 15.7 | -3.3 | 20.9 | 5 | 10.6 | 3.1
C[C@H](Nc1ncnc2nc[nH]c12)c1cc2cccc(Cl)c2c(=O)n1-c1ccccc1 [Duvelisib] | 3.4 | 4.2 | -5.6 | -2.7 | -1.1 | 1.2 | 4.2 | 9.1 | -4.4 | 1.9 | -1.2 | 4.4 | 0.6
CN(NC(=O)CC(=O)NN(C)C(=S)c1ccccc1)C(=S)c1ccccc1 [Elesclomol] | -6 | 7.7 | 0.9 | 28.6 | 6.3 | -4 | -6 | -0.7 | 40.9 | 18.6 | -5.7 | 2 | -6
